Experimental data as given in PMC12377202, “Design, synthesis, and cytotoxic evaluation of quinazoline-based derivatives as VEGER-2 inhibitors: comparative study against EGFR kinase activity, induction of apoptosis, and molecular docking study” (RSC Advances, 2025).
Where two headings read alike, the source gives them in different places.

Legend:
[1] = tested on: MCF-7; experiment: MTT anti-proliferative assay, MCF-7; type: cell-based, human; conditions: for IC50: MTT, MCF-7, read-out: Cytotoxicity against cancer cells IC50 MCF-7
[2] = tested on: HepG-2; experiment: MTT anti-proliferative assay, HepG-2; type: cell-based, human
[3] = tested on: K-562; experiment: MTT anti-proliferative assay, K-562; type: cell-based, human; conditions: for IC50: MTT, K-562, read-out: Cytotoxicity against cancer cells IC50 K-562
[4] = MTT cytotoxicity against normal cells; type: cell-based, human; conditions: human, HEK-293 cells (normal human embryonic kidney)
[5] = tested on: HEK-293; experiment: MTT cytotoxicity against normal cells; type: cell-based, human
[6] = tested on: caspase-3; experiment: Caspase-3 expression level in HepG-2 cells; type: cell-based, human; conditions: for Caspase-3 ± SE: HepG-2, at IC50 concentrations, control 0.460
Experimental: (§1) All synthesized compounds were tested at their cytotoxic concentrations in HepG-2 cells for analysis of gene expression levels of apoptotic markers caspase-3, caspase-9, TNF-α, and IL-6 proteins, and only two active compounds were tested for BAX and Bcl-2 proteins.
(§2) through Flow cytometric analysis.
(§3) Pellets were collected again and incubated with
(§4) Total RNA from vehicle-treated
(§5) (Thermo Scientific, USA).
(§6) All experiments were performed in […]

[7] = tested on: caspase-9; experiment: Caspase-9 expression level in HepG-2 cells; type: cell-based, human; conditions: for Caspase-9 ± SE: HepG-2, at IC50 concentrations, control 11.01
Experimental: as §1, §2, §3, §4, §5, §6

[8] = tested on: TNF-alpha; experiment: TNF-alpha level in HepG-2 cells; type: cell-based, human; conditions: for TNF-alpha ±SE: control 43.48
Experimental: as §1, §2, §3, §4, §5, §6

[9] = tested on: IL-6R; experiment: IL-6R level in HepG-2 cells; type: cell-based, human
Experimental: as §1, §2, §3, §4, §5, §6

[10] = target: EGFR (Homo sapiens, UniProt P00533); experiment: EGFR kinase inhibition assay (ELISA kit)
[11] = target: VEGFR-2 (Homo sapiens, UniProt P35968); experiment: In vitro VEGFR-2 inhibitory assay (ELISA kit); conditions: VEGFR-2 kinase
VEGFR-2, sequence (P35968 20-1356): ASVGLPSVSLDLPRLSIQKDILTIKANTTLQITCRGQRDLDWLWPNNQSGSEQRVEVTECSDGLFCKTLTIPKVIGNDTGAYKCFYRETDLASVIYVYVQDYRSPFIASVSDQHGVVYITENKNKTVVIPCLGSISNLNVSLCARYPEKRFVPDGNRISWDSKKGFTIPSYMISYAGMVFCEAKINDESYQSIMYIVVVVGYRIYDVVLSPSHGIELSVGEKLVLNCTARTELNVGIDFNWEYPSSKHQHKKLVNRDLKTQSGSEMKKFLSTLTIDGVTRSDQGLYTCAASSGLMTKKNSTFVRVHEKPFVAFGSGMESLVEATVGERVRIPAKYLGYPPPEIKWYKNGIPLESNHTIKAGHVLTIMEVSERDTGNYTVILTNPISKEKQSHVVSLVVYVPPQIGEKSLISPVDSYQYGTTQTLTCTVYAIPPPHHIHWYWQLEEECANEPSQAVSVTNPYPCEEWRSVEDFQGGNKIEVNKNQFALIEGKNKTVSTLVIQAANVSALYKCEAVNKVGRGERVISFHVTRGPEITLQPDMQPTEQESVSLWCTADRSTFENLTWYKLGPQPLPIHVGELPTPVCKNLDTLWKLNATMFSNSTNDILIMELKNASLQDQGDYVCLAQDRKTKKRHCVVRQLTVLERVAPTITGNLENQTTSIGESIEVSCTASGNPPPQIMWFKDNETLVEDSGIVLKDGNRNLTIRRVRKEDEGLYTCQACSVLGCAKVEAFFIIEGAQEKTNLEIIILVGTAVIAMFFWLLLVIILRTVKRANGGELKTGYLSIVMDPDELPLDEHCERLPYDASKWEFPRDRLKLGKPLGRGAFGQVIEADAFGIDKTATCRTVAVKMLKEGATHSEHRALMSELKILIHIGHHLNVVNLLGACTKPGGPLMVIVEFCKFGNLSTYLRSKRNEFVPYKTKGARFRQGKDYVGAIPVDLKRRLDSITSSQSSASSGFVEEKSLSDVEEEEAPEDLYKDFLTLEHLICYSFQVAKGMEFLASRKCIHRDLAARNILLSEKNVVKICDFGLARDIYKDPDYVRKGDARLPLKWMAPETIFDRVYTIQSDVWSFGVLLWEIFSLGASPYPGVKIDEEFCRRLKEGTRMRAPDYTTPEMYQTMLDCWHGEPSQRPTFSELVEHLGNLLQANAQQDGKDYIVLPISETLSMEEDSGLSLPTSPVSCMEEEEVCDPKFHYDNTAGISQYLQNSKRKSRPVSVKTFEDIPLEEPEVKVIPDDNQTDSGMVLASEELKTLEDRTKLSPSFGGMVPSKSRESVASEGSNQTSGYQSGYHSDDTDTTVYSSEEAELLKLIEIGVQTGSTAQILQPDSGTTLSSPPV

CNC(=O)c1cc(Oc2ccc(NC(=O)Nc3ccc(Cl)c(C(F)(F)F)c3)cc2)ccn1 [Sorafenib, sorafenib, reference compound]
IC50 ([1]; Homo sapiens, MCF7): 0.128 ± 0.0031 µM
viability at 78 µM ([1]; Homo sapiens, MCF7, 0.078 umol/ml): 71.5%
cytotoxicity at 78 µM ([1]; Homo sapiens, MCF7, 0.078 umol/ml, read-out: Toxicity %): 28.5%
viability ([1]; Homo sapiens, MCF7, 0.313 umol/ml): 25.7%
cytotoxicity at 0.313 µM ([1]; Homo sapiens, MCF7, 0.313 umol/ml, read-out: Toxicity %): 74.3%
viability ([1]; Homo sapiens, MCF7, 0.625 umol/ml): 16.1%
cytotoxicity at 2500 µM ([1]; Homo sapiens, MCF7, 2.5 umol/ml, read-out: Toxicity %): 89.1%
cytotoxicity at 10000 µM ([1]; Homo sapiens, MCF7, 10 umol/ml, read-out: Toxicity %): 91.8%
viability at 78 µM ([2]; Homo sapiens, HepG2, 0.078 umol/ml): 51.7%
cytotoxicity at 0.078 µM ([2]; Homo sapiens, HepG2, 0.078 umol/ml, read-out: Toxicity %): 48.3%
viability at 0.313 µM ([2]; Homo sapiens, HepG2, 0.313 umol/ml): 16.5%
viability at 0.625 µM ([2]; Homo sapiens, HepG2, 0.625 umol/ml): 11.1%
cytotoxicity at 2500 µM ([2]; Homo sapiens, HepG2, 2.5 umol/ml, read-out: Toxicity %): 92.1%
cytotoxicity at 10000 µM ([2]; Homo sapiens, HepG2, 10 umol/ml, read-out: Toxicity %): 93.1%
viability at 78 µM ([3]; Homo sapiens, K562, K-562, 0.078 umol/ml): 38.9%
cytotoxicity at 78 µM ([3]; Homo sapiens, K562, K-562, 0.078 umol/ml, read-out: Toxicity %): 61.1%
viability at 0.313 µM ([3]; Homo sapiens, K562, K-562, 0.313 umol/ml): 12.3%
viability at 0.625 µM ([3]; Homo sapiens, K562, K-562, 0.625 umol/ml): 9.18%
cytotoxicity at 2500 µM ([3]; Homo sapiens, K562, K-562, 2.5 umol/ml, read-out: Toxicity %): 92.1%
cytotoxicity at 10000 µM ([3]; Homo sapiens, K562, K-562, 10 umol/ml, read-out: Toxicity %): 92.9%
IC50 ([3]; Homo sapiens, K562): 0.0606 ± 0.0026 µM
viability at 3 days, 0.078 umol/ml ([4]; HEK-293, 0.078 umol/ml): 69.4%
viability at 3 days, 0.156 umol/ml ([4]; HEK-293, 0.156 umol/ml): 40.8%
viability at 3 days, 0.313 umol/ml ([4]; HEK-293, 0.313 umol/ml): 30.9%
viability at 3 days, 0.625 umol/ml ([4]; HEK-293, 0.625 umol/ml): 17.6%
viability at 3 days, 1.25 umol/ml ([4]; HEK-293, 1.25 umol/ml): 13.1%
viability at 3 days, 2.5 umol/ml ([4]; HEK-293, 2.5 umol/ml): 10.3%
viability at 3 days, 10 umol/ml ([4]; HEK-293, 10 umol/ml): 6.3%
viability at 3 days, 50 umol/ml ([4]; HEK-293, 50 umol/ml): 8.64%
Toxicity % ([5]; HEK-293, 0.078 umol/ml): 30.65%
Toxicity % ([5]; HEK-293, 0.156 umol/ml): 59.15%
Toxicity % ([5]; HEK-293, 0.313 umol/ml): 69.11%
Toxicity % ([5]; HEK-293, 0.625 umol/ml): 82.43%
Toxicity % ([5]; HEK-293, 1.25 umol/ml): 86.92%
Toxicity % ([5]; HEK-293, 2.5 umol/ml): 89.65%
Toxicity % ([5]; HEK-293, 10 umol/ml): 93.7%
Toxicity % ([5]; HEK-293, 50 umol/ml): 91.36%
IC50 ([5]; Homo sapiens, HEK293, raw data, HEK-293): 131 µM

N-(2,6-Dichlorophenyl)-2-(7-nitro-4-oxoquinazolin-3(4H)-yl)acetamide [9d]
Toxicity % ([1]; MCF-7, 0.195 umol): 49.43%
Viability % ([1]; MCF-7, 0.195 umol): 50.57%
Toxicity % ([1]; MCF-7, 0.391 umol): 61.52%
Viability % ([1]; MCF-7, 0.391 umol): 38.48%
Toxicity % ([1]; MCF-7, 0.781 umol): 74.05%
Viability % ([1]; MCF-7, 0.781 umol): 25.95%
Toxicity % ([1]; MCF-7, 1.563 umol): 65.74%
Toxicity % ([1]; MCF-7, 3.125 umol): 91.03%
Viability % ([1]; MCF-7, 3.125 umol): 8.971%
Toxicity % ([1]; MCF-7, 6.25 umol): 92.04%
Viability % ([1]; MCF-7, 6.25 umol): 7.96%
Toxicity % ([1]; MCF-7, 12.5 umol): 93.58%
Viability % ([1]; MCF-7, 12.5 umol): 6.42%
Toxicity % ([1]; MCF-7, 25 umol): 92.88%
Viability % ([1]; MCF-7, 25 umol): 7.124%
IC50 [1]: 0.204 ± 0.0026 µM
Toxicity % ([2]; HepG-2, 0.195 ug/ml): 39.23%
Viability % ([2]; HepG-2, 0.195 ug/ml): 60.77%
Toxicity % ([2]; HepG-2, 0.391 ug/ml): 55.68%
Viability % ([2]; HepG-2, 0.391 ug/ml): 44.32%
Toxicity % ([2]; HepG-2, 0.781 ug/ml): 70.62%
Viability % ([2]; HepG-2, 0.781 ug/ml): 29.38%
Toxicity % ([2]; HepG-2, 1.563 ug/ml): 85.02%
Viability % ([2]; HepG-2, 1.563 ug/ml): 14.98%
Toxicity % ([2]; HepG-2, 3.125 ug/ml): 89.27%
Viability % ([2]; HepG-2, 3.125 ug/ml): 10.73%
Toxicity % ([2]; HepG-2, 6.25 ug/ml): 91.87%
Viability % ([2]; HepG-2, 6.25 ug/ml): 8.132%
Toxicity % ([2]; HepG-2, 12.5 ug/ml): 93.19%
Viability % ([2]; HepG-2, 12.5 ug/ml): 6.813%
Toxicity % ([2]; HepG-2, 25 ug/ml): 93.7%
Viability % ([2]; HepG-2, 25 ug/ml): 6.3%
IC50 ([2]; MTT, HepG-2, read-out: Cytotoxicity against cancer cells IC50 HepG-2): 0.3227 ± 0.0029 µM
Toxicity % ([3]; K-562, 0.195 umol): 0.4516%
Viability % ([3]; K-562, 0.195 umol): 99.55%
Toxicity % ([3]; K-562, 0.391 umol): 4.146%
Viability % ([3]; K-562, 0.391 umol): 95.85%
Toxicity % ([3]; K-562, 0.781 umol): 28.41%
Viability % ([3]; K-562, 0.781 umol): 71.59%
Toxicity % ([3]; K-562, 1.563 umol): 39.82%
Viability % ([3]; K-562, 1.563 umol): 60.18%
Toxicity % ([3]; K-562, 3.125 umol): 62.19%
Viability % ([3]; K-562, 3.125 umol): 37.81%
Toxicity % ([3]; K-562, 6.25 umol): 87.81%
Viability % ([3]; K-562, 6.25 umol): 12.19%
Toxicity % ([3]; K-562, 12.5 umol): 90.52%
Viability % ([3]; K-562, 12.5 umol): 9.483%
Toxicity % ([3]; K-562, 25 umol): 92.57%
Viability % ([3]; K-562, 25 umol): 7.43%
IC50 [3]: 2.274 ± 0.0035 µM
Caspase-3 ± SE [6]: 0.68 ± 0.013 ng/mL
Caspase-3 ± SE ([6]; listed as N3): 0.68 ng/mL
caspase-3 expression level, fold increase ([6]; HepG-2, vs control cells): 1.5 fold
Caspase-9 ± SE [7]: 43.52 ± 3.69 ng/L
Caspase-9 ± SE ([7]; listed as N3): 43.52 ng/L
caspase-9 expression level, fold increase ([7]; HepG-2, vs control cells): 3.95 fold
TNF-alpha ±SE ([8]; HepG-2, at IC50 concentrations): 10.2 ± 1.53 ng/L
TNF-α expression level ([8]; HepG-2, control 43.48%): 10.2 ng/L
TNF-alpha ±SE ([8]; raw data, HepG2): 16.01 ng/L
IL-6R ± SE ([9]; HepG-2, at IC50 concentrations, control 44.10): 16.64 ± 0.83 ng/L
IL-6R protein level ([9]; HepG-2, control 44.10%): 16.64 ng/L
IL-6 ±SE ([9]; raw data, HepG2, control 44.10): 10.13 ng/L
Activity % ([10]; HepG2): 18.428%
Inhibition % ([10]; HepG2): 81.572%
Activity % ([10]; K-562): 16.638%
Inhibition % ([10]; K-562): 83.362%
Activity % ([10]; MCF7): 30.226%
Inhibition % ([10]; MCF7): 69.774%
Activity % ([11]; HepG2): 19.818%
Inhibition % ([11]; HepG2): 80.182%
Activity % ([11]; K-562): 41.248%
Inhibition % ([11]; K-562): 58.752%
Activity % ([11]; MCF7): 52.958%
Inhibition % ([11]; MCF7): 47.042%
